From patent publication US20110190503A1, “Thiazolopyridin-2-yloxy-phenyl and thiazolopyrazin-2-yloxy-phenyl amines as modulators of leukotriene A4 hydrolase” (Janssen Pharmaceutical NV, priority 2008, published 2011)

Molecular target: T1, recombinant human LTA4 hydrolase (rhLTA4H) (Homo sapiens, UniProt P09960)
T1 construct: made in house; host or cells: Spodoptera frugiperda (Sf-9) cells, recombinant baculovirus (pFastBac1)
T1 sequence (P09960 1-611): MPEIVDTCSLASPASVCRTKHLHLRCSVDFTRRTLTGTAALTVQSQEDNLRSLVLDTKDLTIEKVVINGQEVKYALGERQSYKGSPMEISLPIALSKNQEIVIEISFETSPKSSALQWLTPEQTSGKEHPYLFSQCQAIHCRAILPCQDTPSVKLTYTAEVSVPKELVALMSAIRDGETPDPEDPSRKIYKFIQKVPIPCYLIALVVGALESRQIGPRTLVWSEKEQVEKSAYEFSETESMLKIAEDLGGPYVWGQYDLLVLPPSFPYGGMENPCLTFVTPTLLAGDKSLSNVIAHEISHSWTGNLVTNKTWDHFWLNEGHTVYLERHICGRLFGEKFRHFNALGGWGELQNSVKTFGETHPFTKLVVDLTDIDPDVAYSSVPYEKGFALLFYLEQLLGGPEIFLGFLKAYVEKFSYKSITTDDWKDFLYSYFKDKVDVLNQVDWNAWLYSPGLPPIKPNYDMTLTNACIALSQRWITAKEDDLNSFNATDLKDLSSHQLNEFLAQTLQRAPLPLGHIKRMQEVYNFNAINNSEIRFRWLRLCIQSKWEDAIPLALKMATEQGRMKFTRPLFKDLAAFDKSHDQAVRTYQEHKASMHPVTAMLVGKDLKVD
Experiment: Recombinant human LTA4 hydrolase assay for LTA4 hydrolase inhibitor activity
Type: biochemical
Conditions: rhLTA4H, LTA4 substrate, LTB4 by immunoassay; single determination or average; read-out: IC50
Description: Assay 1: Recombinant Human LTA4 Hydrolase Assay for LTA4 Hydrolase Inhibitor Activity
Compounds of the present invention were tested for LTA4 hydrolase inhibitor activity against recombinant human LTA4 hydrolase (rhLTA4H). Vectors were prepared and used to express rhLTA4H essentially as follows: LTA4 hydrolase encoding DNA was amplified by polymerase chain reaction (PCR) using a human placental cDNA library as a template. […] The amplified 1.9 kb DNA fragment encoding LTA4 hydrolase was isolated and cloned into the pFastBac1 vector (Invitrogen). Recombinant baculovirus was generated as described by the manufacturer, and used to infect Spodoptera frugiperda (Sf-9) cells. […] The purified enzyme solution was adjusted to contain 0.29 mg/mL LTA4 hydrolase, 50 mM Tris (pH 8.0), 150 mM NaCl, 5 mM dithiothreitol, 50% glycerol, and EDTA-free Complete protease inhibitor cocktail (Roche).
LTA4 substrate was prepared from the methyl ester of LTA4 (Cayman Chemical) by treatment with 67 equiv of NaOH under nitrogen at rt for 40 min. The LTA4 substrate in its free acid form was kept frozen at −80° C. until needed. Each compound was diluted to different concentrations in assay buffer (from Assay Designs) containing 10% DMSO. A 25-μL aliquot of each compound dilution was incubated for 10 min at rt with an equal volume of assay buffer containing 10 ng of recombinant human LTA4H. The solution was then adjusted to 200 μL with assay buffer. […] Each reaction was carried out at rt for 30 min. The reaction was stopped by diluting 10 μL of the reaction mixture with 200 μL of assay buffer. LTB4 was quantified in the diluted sample by a commercially available enzyme-linked immunoassay (Cayman Chemical Co.), as recommended by the manufacturer. Positive controls, under essentially identical conditions but without addition of an inhibitor compound, and negative controls, containing all assay components except enzyme, were routinely run in each experiment. IC50 values were determined by nonlinear regression of the activity data at different compound concentrations using Graphpad Prism 4.0, one site binding competition.
The values presented here are the result of a single determination or an average of two or more determinations, as indicated in parentheses following each value. For compounds tested three or more times, the average value is followed by the standard deviation

SMILES | IC50 [nM]
c1ccc2c(c1)CCCN2CCOc1ccc(Oc2nc3ncccc3s2)cc1 [Example 7, 1-{2-[4-([1,3]Thiazolo[4,5-b]pyridin-2-yloxy)phenoxy]ethyl}-1,2,3,4-tetrahydroquinoline] | 310
O=C(c1ccccn1)N1CCN(Cc2ccc(Oc3nc4ccncc4s3)cc2)CC1 [Example 217, 2-(4-{[4-(Pyridin-2-ylcarbonyl)piperazin-1-yl]methyl}phenoxy)[1,3]thiazolo[5,4-c]pyridine] | 2510
CC(=O)N1[C@@H]2CC[C@H]1C[C@H](NCc1ccc(Oc3nc4ncc(C)cc4s3)cc1)C2 [Example 181, meso-(3-exo)-8-Acetyl-N-({4-[(6-methyl[1,3]thiazolo[4,5-b]pyridin-2-yl)oxy]phenyl}methyl)-8-azabicyclo[3.2.1]octan-3-amine] | 332
CC(=O)N1C[C@@H]2C[C@H]1CN2Cc1ccc(Oc2nc3nc(C)ccc3s2)cc1 [Example 126, 2-(4-{[(1S,4S)-5-Acetyl-2,5-diazabicyclo[2.2.1]hept-2-yl]methyl}phenoxy)-5-methyl[1,3]thiazolo[4,5-b]pyridine] | 920
NC(=O)C1CCN(CCOc2ccc(Oc3nc4cccnc4s3)cc2)CC1 [Example 35, 1-{2-[4-([1,3]Thiazolo[5,4-b]pyridin-2-yloxy)phenoxy]ethyl}piperidine-4-carboxamide] | 350
O=C(O)C1CCN(Cc2ccc(Oc3nc4cccnc4s3)cc2)CC1 [Example 132, 1-[4-([1,3]Thiazolo[5,4-b]pyridin-2-yloxy)benzyl]piperidine-4-carboxylic acid] | 1000
CC(=O)N[C@H]1C[C@H]2CC[C@@H](C1)N2Cc1ccc(Oc2nc3ccncc3s2)cc1 [Example 115, meso-N-{(3-endo)-8-[4-([1,3]Thiazolo[5,4-c]pyridin-2-yloxy)benzyl]-8-azabicyclo[3.2.1]oct-3-yl}acetamide] | 320
Clc1ccc(SC2CCN(CCOc3ccc(Oc4nc5ncccc5s4)cc3)CC2)cc1 [Example 136, 2-[4-(2-{4-[(4-Chlorophenyl)sulfanyl]piperidin-1-yl}ethoxy)phenoxy][1,3]thiazolo[4,5-b]pyridine] | 427
COCC(=O)NC1CCN(Cc2ccc(Oc3nc4ncc(C)cc4s3)cc2)CC1 [Example 216, 2-Methoxy-N-(1-{4-[(6-methyl[1,3]thiazolo[4,5-b]pyridin-2-yl)oxy]benzyl}piperidin-4-yl)acetamide] | 60
Cc1cnc2nc(Oc3ccc(CN4CCC(NC(=O)c5cccs5)CC4)cc3)sc2c1 [Example 220, N-(1-{4-[(6-Methyl[1,3]thiazolo[4,5-b]pyridin-2-yl)oxy]benzyl}piperidin-4-yl)thiophene-2-carboxamide] | 109
O=C(NC1CCN(CCc2ccc(Oc3nc4ccncc4s3)cc2)CC1)C1CC1 [Example 192, N-(1-{2-[4-([1,3]Thiazolo[5,4-c]pyridin-2-yloxy)phenyl]ethyl}piperidin-4-yl)cyclopropanecarboxamide] | 507
Cc1ccnc2nc(Oc3ccc(CN4C[C@H]5CC[C@@H](C4)N5C(N)=O)cc3)sc12 [Example 203, meso-3-{4-[(7-Methyl[1,3]thiazolo[4,5-b]pyridin-2-yl)oxy]benzyl}-3,8-diazabicyclo[3.2.1]octane-8-carboxamide] | 679
COc1ccccc1C1CCN(CCOc2ccc(Oc3nc4cccnc4s3)cc2)CC1 [Example 41, 2-(4-{2-[4-(2-Methoxyphenyl)piperidin-1-yl]ethoxy}phenoxy)[1,3]thiazolo[5,4-b]pyridine] | 340
CN(CCN1CCCCC1)Cc1ccc(Oc2nc3ncccc3s2)cc1 [Example 271, N-Methyl-2-piperidin-1-yl-N-[4-([1,3]thiazolo[4,5-b]pyridin-2-yloxy)benzyl]ethanamine] | 293
CCN(CCc1ccc(Oc2nc3cccnc3s2)cc1)C1CC1 [Example 174, N-Ethyl-N-{2-[4-([1,3]thiazolo[5,4-b]pyridin-2-yloxy)phenyl]ethyl}cyclopropanamine] | 94
